Laboratory results from patent US4906662A, “Phenol derivatives, their preparation and the use thereof” (Otsuka Pharmaceutical Factory, Inc., priority 1986, dated 1990).

Assays:
5-lipoxygenase = target: T1, 5-lipoxygenase (Cavia porcellus, UniProt A0A286X958); assay: 5-Lipoxygenase inhibitory activity (5-HETE formation in guinea pig peritoneal exudate cells); type: cell-based; settings: 10 μM; read-out: Percent inhibition of 5-lipoxygenase
T1 construct: endogenous in cells; host or cells: guinea pig peritoneal exudate cells (casein-elicited), intact cell suspension
T1 sequence (A0A286X958 1-674): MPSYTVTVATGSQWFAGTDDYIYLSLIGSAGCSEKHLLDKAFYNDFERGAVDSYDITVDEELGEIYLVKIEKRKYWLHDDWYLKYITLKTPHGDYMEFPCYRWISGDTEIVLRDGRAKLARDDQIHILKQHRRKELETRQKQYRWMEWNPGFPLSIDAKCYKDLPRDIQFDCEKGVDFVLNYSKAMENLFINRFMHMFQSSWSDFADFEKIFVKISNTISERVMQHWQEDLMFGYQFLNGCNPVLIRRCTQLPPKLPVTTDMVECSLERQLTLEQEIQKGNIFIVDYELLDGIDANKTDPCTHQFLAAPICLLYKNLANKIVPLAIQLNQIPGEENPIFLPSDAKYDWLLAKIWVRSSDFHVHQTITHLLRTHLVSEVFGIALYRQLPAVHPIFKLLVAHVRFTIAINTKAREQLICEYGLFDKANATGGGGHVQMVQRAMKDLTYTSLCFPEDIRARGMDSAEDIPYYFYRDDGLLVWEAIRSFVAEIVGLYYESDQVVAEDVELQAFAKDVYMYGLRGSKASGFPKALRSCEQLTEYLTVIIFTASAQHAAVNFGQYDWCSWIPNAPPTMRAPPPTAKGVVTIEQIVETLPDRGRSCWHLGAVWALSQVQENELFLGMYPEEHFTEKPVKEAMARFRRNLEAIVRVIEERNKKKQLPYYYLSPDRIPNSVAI
Experimental: (J. Biol. Chem., 256, 4156 (1981)) and to the method of Ochi et al. (J. Biol. Chem., 258, 5754 (1983). More specifically, 2% casein was intraperitoneally given to a guinea pig, which was bleeded to death 14 to 16 hours thereafter. The peritoneal cavity was washed to collect exudate cells, which were suspended in a phosphate buffer containing 1 mM CaCl2 and 5.5 mM glucose to a concentration of 2.5×10^7 cells/ml. The cell suspension was incubated at 30° C. for 2 minutes. The test compound was then added to the cell suspension, followed by incubation for 2 minutes. With addition of 10 μM of A23187 first and then 10 μM of ^14 C-arachidonic acid to the resulting suspension. Then, the suspension was incubated for 3 minutes. […] The arachidonic acid, 5(S)-hydroxy-6,8,11,14-eicosatetraenoic acid (5-HETE) and other portions were thereafter scraped off, and ^14 C was counted by a scintillator.

[1] = system: carrageenin-induced paw edema; assay: Anti-inflammatory activity: inhibition of carrageenin-induced paw edema in rats; type: in vivo, rat (S.D. strain, male); settings: po; 100 mg/kg p.o.; rat, 3 hours after carrageenin; read-out: Percent inhibition of edema
Experimental: (1) Anti-inflammatory activity:inhibition of carrageenin-induced paw edema in rats The compound was tested for the above activity according to the method of Winter et al. [Proc. Soc. […] One hour after the test compound was orally given to the animal, 0.1 ml of 1% carrageenin solution was subcutaneously injected into the right footpad. The paw volume was measured 3 hours thereafter, and the resulting increase in the volume was calculated based on the volume before the injection of carrageenin solution. The percent inhibition was determined in comparison with the increase in the control group.

Work on `COc1ccc(Nc2cc(C(C)(C)C)c(O)c(C(C)(C)C)c2)cc1` [Compound 7] yielded an inhibition at 10 µM (5-lipoxygenase) of 49% and an inhibition in vivo at 100 mg/kg [1] of 41%.
